# Target: T1, human Werner helicase (Uniprot Q14191, amino acids 517-1235 with L1074F point mutation), WRN-BV08 (Homo sapiens, UniProt Q14191, L1074F)
# T1 construct: Uniprot Q14191, amino acids 517-1235 with L1074F point mutation; TEV cleavable 8xHis tag (C, cleaved yes); made in house; host or cells: Sf9 insect cells (baculovirus, pFastBac)
# Assay: WRN (BV08) ADP-Glo Assay
# Assay type: biochemical
# Protocol: DNA duplex was synthesized at BGI (Shenzhen, China) and was composed of strand 1 with the sequence 5′-[…]-3′ (SEQ ID NO.: 1) and strand 2 with the sequence 5′-[…]-3′ (SEQ ID NO.: 2). DNA strands were annealed by heating to 95 °C for 5 minutes followed by slow cooling to room temperature. […] DMSO (0.1 μl) was added to columns 12, rows A-H and column 24, rows I-P for the maximum signal control.
# Where RLU=relative luminescence units, sample=signal in sample well, and MIN and MAX are the respective minimum and maximum signal controls. • Four-parameter IC50 fit equation:
# Y=Bottom+(Top−Bottom)/(1+(IC50/X)^Hill Slope)
# Where top and bottom are normally allowed to float but may be fixed at 100 or 0 respectively in a 3-parameter fit. Y is the % inhibition and X is the compound concentration.
# Molecular Biology and virus production. […] The baculovirus from the expression plasmid WRN-BV08 was generated from transfection and amplification following the manufacturer's instructions.
# Sf9 cells grown in SF900II media were infected with 1:200 WRN-BV08 P2 virus and incubated for protein expression for 72 h at 27 °C. The WRN protein was purified using the following protocol. The cell pellets were thawed and resuspended in buffer A (50 mM Tris, pH 7.5, 500 mM NaCl, 1 mM TCEP, 10% Glycerol) supplemented with 0.5% CHAPS, 1 mM [COMPOUND LEFT OUT], 1 μg/ml Leupeptin, 1 μg/ml Pepstatin, and the Pierce Universal Nuclease and cocktail tablet. Cleared lysates were loaded onto a Ni Sepharose™ excel column and washed with buffer A and bound protein was eluted with buffer A supplemented with 300 mM imidazole. The eluted protein was dialyzed against buffer A and digested by His-tagged TEV (1:5 ratio) overnight at 4 °C. […] Untagged WRN protein was eluted from the column with buffer A supplemented with 20 mM imidazole, dialyzed overnight into buffer B (50 mM Tris, pH 7.5, 1 mM TCEP, 10% Glycerol) supplemented with 150 mM NaCl and loaded onto a Heparin column. Proteins were eluted with a step gradient of buffer B supplemented with 150 mM, 200 mM, 300 mM and 500 mM NaCl.
# T1 sequence (Q14191 517-1235 L1074F): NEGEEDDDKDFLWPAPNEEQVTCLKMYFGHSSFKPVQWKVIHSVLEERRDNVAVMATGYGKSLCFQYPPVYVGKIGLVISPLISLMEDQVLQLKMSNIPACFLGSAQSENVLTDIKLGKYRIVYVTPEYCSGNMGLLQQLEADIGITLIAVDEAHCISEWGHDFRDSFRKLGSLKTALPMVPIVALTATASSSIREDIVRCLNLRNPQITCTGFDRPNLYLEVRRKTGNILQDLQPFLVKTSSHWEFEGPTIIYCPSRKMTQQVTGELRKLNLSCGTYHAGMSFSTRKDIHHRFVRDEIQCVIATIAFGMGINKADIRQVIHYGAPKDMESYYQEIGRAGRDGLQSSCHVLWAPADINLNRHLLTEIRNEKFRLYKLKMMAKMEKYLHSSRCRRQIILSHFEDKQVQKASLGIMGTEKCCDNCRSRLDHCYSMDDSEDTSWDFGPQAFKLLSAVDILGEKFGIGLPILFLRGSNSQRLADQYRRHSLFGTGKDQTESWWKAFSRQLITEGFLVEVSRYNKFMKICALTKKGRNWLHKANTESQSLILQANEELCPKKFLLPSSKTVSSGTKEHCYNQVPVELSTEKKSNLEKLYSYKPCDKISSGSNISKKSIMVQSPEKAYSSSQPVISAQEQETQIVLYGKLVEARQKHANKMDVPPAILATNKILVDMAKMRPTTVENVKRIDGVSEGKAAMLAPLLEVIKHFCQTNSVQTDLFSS
structure (smiles),measurement,value
"CCc1c(N2CCN(C(=O)c3nn(C)cc3O)CC2)c(=O)n2nc(C3CC3)nc2n1CC(=O)Nc1ccc(C(F)(F)F)cc1Cl [Compound I-36, N-[2-chloro-4-(trifluoromethyl)phenyl]-2-{2-cyclopropyl-5-ethyl-6-[4-(4-hydroxy-1-methyl-1H-pyrazole-3-carbonyl)piperazin-1-yl]-7-oxo-4H,7H-[1,2,4]triazolo[1,5-a]pyrimidin-4-yl}acetamide]",IC50,0.1 to 0.5 µM
"CCc1c(N2CCN(C(=O)c3cnn(C)c3)CC2)c(=O)n2nc(-c3cc(OC)ccn3)nc2n1CC(=O)Nc1ccc(C(F)(F)F)cc1Cl [Compound I-69, N-[2-chloro-4-(trifluoromethyl)phenyl]-2-[5-ethyl-2-(4-methoxypyridin-2-yl)-6-[4-(1-methyl-1H-pyrazole-4-carbonyl)piperazin-1-yl]-7-oxo-4H,7H-[1,2,4]triazolo[1,5-a]pyrimidin-4-yl]acetamide]",IC50,0.005 to 0.05 µM
"CCc1c(N2CCN(C(=O)CC(C)(C)O)CC2)c(=O)n2nc(C3=CCOCC3)nc2n1CC(=O)Nc1ccc(C(F)(F)F)cc1Cl [Compound I-40, N-[2-chloro-4-(trifluoromethyl)phenyl]-2-[2-(3,6-dihydro-2H-pyran-4-yl)-5-ethyl-6-[4-(3-hydroxy-3-methylbutanoyl)piperazin-1-yl]-7-oxo-4H,7H-[1,2,4]triazolo[1,5-a]pyrimidin-4-yl]acetamide]",IC50,0.05 to 0.1 µM
"CCc1c(N2CCN(C(=O)c3nnn[nH]3)CC2)c(=O)n2nc(C3=CCOCC3)nc2n1CC(=O)Nc1ccc(C(F)(F)F)cc1Cl [Compound I-17, N-[2-chloro-4-(trifluoromethyl)phenyl]-2-[2-(3,6-dihydro-2H-pyran-4-yl)-5-ethyl-7-oxo-6-[4-(1H-1,2,3,4-tetrazole-5-carbonyl)piperazin-1-yl]-4H,7H-[1,2,4]triazolo[1,5-a]pyrimidin-4-yl]acetamide]",IC50,0.005 to 0.05 µM
"CCc1c(N2CCN(C(C)=O)CC2)c(=O)n2nc(-c3ccnc(OC)c3)nc2n1CC(=O)Nc1ccc(C(F)(F)F)cc1Cl [Compound I-46, 2-[6-(4-acetylpiperazin-1-yl)-5-ethyl-2-(2-methoxypyridin-4-yl)-7-oxo-4H,7H-[1,2,4]triazolo[1,5-a]pyrimidin-4-yl]-N-[2-chloro-4-(trifluoromethyl)phenyl]acetamide]",IC50,0.005 to 0.05 µM
"CCc1c(N2CCN(C(=O)c3ncnc(C)c3O)CC2)c(=O)n2nc(-c3ccnc(OC(F)F)c3)nc2n1CC(=O)Nc1ccc(C(F)(F)F)cc1Cl [Compound I-44, N-[2-chloro-4-(trifluoromethyl)phenyl]-2-{2-[2-(difluoromethoxy)pyridin-4-yl]-5-ethyl-6-[4-(5-hydroxy-6-methylpyrimidine-4-carbonyl)piperazin-1-yl]-7-oxo-4H,7H-[1,2,4]triazolo[1,5-a]pyrimidin-4-yl}acetamide]",IC50,0.005 to 0.05 µM
"CCc1c(N2CCN(C(=O)c3nnn(C)n3)CC2)c(=O)n2nc(-c3ccnc(OC)c3)nc2n1CC(=O)Nc1ccc(C(F)(F)F)cc1Cl [Compound I-74, N-[2-chloro-4-(trifluoromethyl)phenyl]-2-[5-ethyl-2-(2-methoxypyridin-4-yl)-6-[4-(2-methyl-2H-1,2,3,4-tetrazole-5-carbonyl)piperazin-1-yl]-7-oxo-4H,7H-[1,2,4]triazolo[1,5-a]pyrimidin-4-yl]acetamide]",IC50,0.005 to 0.05 µM
"CCc1c(N2CCN(C(=O)c3cnn(C)c3O)CC2)c(=O)n2nc(C3=CCOCC3)nc2n1CC(=O)Nc1ccc(C(F)(F)F)cc1Cl [Compound I-26, N-[2-chloro-4-(trifluoromethyl)phenyl]-2-[2-(3,6-dihydro-2H-pyran-4-yl)-5-ethyl-6-[4-(5-hydroxy-1-methyl-1H-pyrazole-4-carbonyl)piperazin-1-yl]-7-oxo-4H,7H-[1,2,4]triazolo[1,5-a]pyrimidin-4-yl]acetamide]",IC50,0.005 to 0.05 µM
"CCc1c(N2CCN(C(=O)c3cnn(C)c3)CC2)c(=O)n2nc(-c3ccnc(OC)c3)nc2n1CC(=O)Nc1ccc(S(F)(F)(F)(F)F)cc1Cl [Compound I-82, N-[2-chloro-4-(pentafluoro-lambda6-sulfanyl)phenyl]-2-[5-ethyl-2-(2-methoxypyridin-4-yl)-6-[4-(1-methyl-1H-pyrazole-4-carbonyl)piperazin-1-yl]-7-oxo-4H,7H-[1,2,4]triazolo[1,5-a]pyrimidin-4-yl]acetamide]",IC50,0.005 to 0.05 µM
"CCc1c(N2CCN(C(=O)c3cnn(C)c3)CC2)c(=O)n2nc(C3=CCOCC3)nc2n1CC(=O)Nc1ccc(C(F)(F)F)cc1Cl [Compound I-23, N-[2-chloro-4-(trifluoromethyl)phenyl]-2-[2-(3,6-dihydro-2H-pyran-4-yl)-5-ethyl-6-[4-(1-methyl-1H-pyrazole-4-carbonyl)piperazin-1-yl]-7-oxo-4H,7H-[1,2,4]triazolo[1,5-a]pyrimidin-4-yl]acetamide]",IC50,0.005 to 0.05 µM
"CCc1c(N2CCN(C(=O)c3cnnn3C)CC2)c(=O)n2nc(-c3ccnc(OC)c3)nc2n1CC(=O)Nc1ccc(C(F)(F)F)cc1Cl [Compound I-63, N-[2-chloro-4-(trifluoromethyl)phenyl]-2-[5-ethyl-2-(2-methoxypyridin-4-yl)-6-[4-(1-methyl-1H-1,2,3-triazole-5-carbonyl)piperazin-1-yl]-7-oxo-4H,7H-[1,2,4]triazolo[1,5-a]pyrimidin-4-yl]acetamide]",IC50,0.005 to 0.05 µM
"CCc1c(N2CCN(C(=O)c3cnn(C)c3C)CC2)c(=O)n2nc(-c3ccnc(OC)c3)nc2n1CC(=O)Nc1ccc(C(F)(F)F)cc1Cl [Compound I-49, N-[2-chloro-4-(trifluoromethyl)phenyl]-2-{6-[4-(1,5-dimethyl-1H-pyrazole-4-carbonyl)piperazin-1-yl]-5-ethyl-2-(2-methoxypyridin-4-yl)-7-oxo-4H,7H-[1,2,4]triazolo[1,5-a]pyrimidin-4-yl}acetamide]",IC50,0.005 to 0.05 µM
"CCc1c(N2CCN(C(=O)c3cccc4cn[nH]c34)CC2)c(=O)n2nc(C3=CCOCC3)nc2n1CC(=O)Nc1ccc(C(F)(F)F)cc1Cl [Compound I-14, N-[2-chloro-4-(trifluoromethyl)phenyl]-2-[2-(3,6-dihydro-2H-pyran-4-yl)-5-ethyl-6-[4-(1H-indazole-7-carbonyl)piperazin-1-yl]-7-oxo-4H,7H-[1,2,4]triazolo[1,5-a]pyrimidin-4-yl]acetamide]",IC50,< 0.005 µM
"CCc1c(N2CCN(C(=O)c3cn[nH]n3)CC2)c(=O)n2nc(C3=CCOCC3)nc2n1CC(=O)Nc1ccc(C(F)(F)F)cc1Cl [Compound I-38, N-[2-chloro-4-(trifluoromethyl)phenyl]-2-[2-(3,6-dihydro-2H-pyran-4-yl)-5-ethyl-7-oxo-6-[4-(2H-1,2,3-triazole-4-carbonyl)piperazin-1-yl]-4H,7H-[1,2,4]triazolo[1,5-a]pyrimidin-4-yl]acetamide]",IC50,< 0.005 µM
"CCc1c(N2CCN(C(=O)C(C)(C)CO)CC2)c(=O)n2nc(C3=CCOCC3)nc2n1CC(=O)Nc1ccc(C(F)(F)F)cc1Cl [Compound I-20, N-[2-chloro-4-(trifluoromethyl)phenyl]-2-[2-(3,6-dihydro-2H-pyran-4-yl)-5-ethyl-6-[4-(3-hydroxy-2,2-dimethylpropanoyl)piperazin-1-yl]-7-oxo-4H,7H-[1,2,4]triazolo[1,5-a]pyrimidin-4-yl]acetamide]",IC50,0.005 to 0.05 µM

# Source: US20260356840A1, “[1,2,4]TRIAZOLO[1,5-A]PYRIMIDINONE WRN INHIBITORS” (Nimbus Wadjet, Inc., priority 2023, published 2026)
